Measurements as given in patent publication US7220822B2, “CD28 mimetics for blocking T cell mediated immune reactions” (The Ohio State University, priority 2000, dated 2007).
Read-outs that look alike come from different tables or passages of the source. Square brackets hold non-standard residues; d marks the D form. Peptide text beside a SMILES is read from it.

Experiments:
[1] = tested on: lymph node cells of MBP-primed mice; assay: IL-2 ELISPOT of draining lymph node cells from peptide-treated MBP-immunized mice; format: in vivo, mouse; settings: mice treated on day 0 of immunization, ELISPOT on restimulation
Experimental: Ninety-six well unifilter plates (Polyfiltronics, Rockland, Md.) were coated overnight at 4° C. with rat anti-mouse IL-2 (Clone JES6-1A12) (Pharmingen, Calif.) at 4 μg/ml. The plates were then washed 4× with sterile PBS and blocked with 1% BSA in DMEM for 2 h at room temperature. Subsequently, isolated single cell suspensions of CD4+ LNC (5×10^6 cells/ml) and splenocytes (10×10^6 cells/ml) were added with the antigens and CD28 peptides under the conditions as specified for the proliferation assays. After 24 h of culture in the incubator, the cells were removed by washing 3× with PBS and 4× with PBS containing Tween (1:2000) (PBST). Then biotinylated anti mouse-IL-2 (Clone JES6-5H4) (Pharmingen, Calif.) 2 μg/ml was added and incubated at 4° C. overnight. After washing 3× with PBST and 3× with PBS, goat anti-biotin antibody conjugated to alkaline phosphatase (Vector Laboratories Inc, Burlingame, Calif.) diluted to 1:1000 in PBST containing 1% BSA was added and incubated for 2 h at room temperature. The spots were visualized by adding BCIP/NBT phosphatase substrate (Kirkeguard & Perry Laboratories, Gaithesburg, Md.). Image analysis of ELISA spot assays was performed on a Series 1 Immunospot Image Analyzer (Autoimmun Diagnostika (US) Inc.) customized for analyzing ELISA spots to meet objective criteria for size, chromatic density, shape and color.
MBP reactive T cells that induce EAE are known to display a Th1 phenotype secreting the proinflammatory cytokines IL-2, […] and TNF-β (36. Kay, B. K., M. P. Williamson, and M. Sudol. 2000. Faseb J 14, no. 2:231). ELISPOT assay was used to assess in vitro cytokine production by draining lymph node cells and splenocytes upon restimulation from in vivo MBP-primed T cells. Mice were treated as described in Example 3, on day 0 of immunization.

[2] = tested on: CD4+ LNC from Vα4/Vβ8.2 TCR transgenic mice; format: cell-based, mouse; settings: CD4+ LNC and spleen cells, NAc 1-11 10 μg/ml, all concentrations used
Experimental: The in vitro effect of varying concentration of the CD 28 peptide mimetics on CD4+ lymph node cells and spleen cells from transgenic mice bearing the Vα 4 Vβ8.2 TCR specific for MBP Ac 1-11 was determined.
CD4+ T cells were purified from pooled peripheral lymph nodes (inguinal, axillary, brachial, cervical, popliteal), and mesenteric lymph nodes and spleen of 6–8 wk old Vα4/Vβ8.2 TCR transgenic mice by positive selection. Single cell suspensions were prepared by lympholyte M gradient, washed, counted and incubated with magnetic bead conjugated anti-mouse CD4 (L3T4) (Miltenyi Biotech Corporation) followed by positive selection using magnetic selection columns. Purity of the CD4^+ cells was greater than 90% as assessed by staining with FITC labeled anti-mouseVβ8.2 mAb (Pharmingen). During the selection process, T cells maintain a naïve phenotype with no evidence for T cell activation as measured by proliferation in culture. Purified CD4+ T-cells (5×10^4 cells/well) were cultured together with wild type splenocytes from B10.PL mice as APC's (10^5 cells/well) in RPMI 1640 containing 10% FCS, 25 mM HEPES, 2 mM L-glutamine, 50 U/ml penicillin, 50 μg/ml streptomycin, and 5×10–5 M 2-ME in round-bottom 96-well plates and MBP (40 μg/ml) or MBP NAc1-11 (10 μg/ml) or media only in the presence or absence of synthetic CD28 peptide analogues at different concentrations in triplicate wells for 72 h, including a final 18-h pulse with [^3H] thymidine. Cultures were harvested onto glass-fiber mats using a Skatron harvester (Skatron, Sterling, Va.) and were counted by liquid scintillation on LKB Betaplate (LKB, Rockville, Md.). The means of the triplicate were determined and the results are expressed as delta cpm (mean counts per minute of cultures with Ag-mean counts per minute of cultures with medium alone)±SD.

CD80-Ig = target: T1, CD80-Ig (Homo sapiens, UniProt P33681); assay: Direct kinetic analysis of CD28 peptide binding to immobilized CD80-Ig by surface plasmon resonance (BIACORE); settings: for maximum response units obtained for binding to CD80-Ig: SPR direct binding; for kd: direct binding; for kon: pH 7.4, direct binding, read-out: ka
T1 construct: extracellular domain of CD80 fused with the constant region of mouse IgG1 heavy chain
T1 sequence (P33681 35-242 limits assumed, other chains not shown): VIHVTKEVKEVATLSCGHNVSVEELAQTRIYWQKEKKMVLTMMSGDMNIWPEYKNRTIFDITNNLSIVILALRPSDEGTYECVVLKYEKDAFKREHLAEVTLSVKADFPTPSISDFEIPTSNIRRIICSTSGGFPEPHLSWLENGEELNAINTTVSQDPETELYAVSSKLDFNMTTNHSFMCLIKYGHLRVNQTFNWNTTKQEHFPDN
Experimental: Binding experiments were performed by surface plasmon resonance (SPR) on an instrument sold under the trademark BIACORE™ from Pharmacia Biosensor (Uppasala, Sweden).
CD80-Ig (extracellular domain of CD80 fused with the constant region of mouse IgG1 heavy chain) at 35 μg/ml in 10 mM sodium acetate buffer, pH 4.2, was coupled to a research grade CM 5 sensor chip using a standard amine coupling procedure with the following modifications (38). To reduce the immobilization level of the ligand, the surface was activated for 3 (instead of 7) minutes with N-hydroxysuccinamide and […]. […] Following coupling, noncovalently bound ligand was removed by washing twice with 5 mM NaOH.
The analytes were also injected at the same concentration and injection times over an empty flow cell with nothing immobilized.
Data analysis was performed with BIAEVALUATION™ software version 2.1(Pharmacia Biosensor AB). […] Prior to kinetic analysis, data were adjusted to zero baseline level by subtracting the background responses obtained by injection of the analytes through a control flow cell with no ligand immobilized. First, the dissociation rate constant, kd, (units: s^−1) was determined, by fitting experimental data from the buffer flow part of the sensogram to the equation R(t)=R1*e^−kd*(t^0^−t^1^) (1) where t0 is the injection time, R1 is the response level at the start of dissociation time t1 and kd is the dissociation rate constant.
The kd value obtained was used as a constant during the analysis of the injection phase data. Binding data above the noise level was selected by converting the sensogram to a plot of the logarithm of the binding rate vs time (dR/dt vs. time). The ka was determined by nonlinear curve fitting of the following equation R(t)=Req*{1−e^−(k^a^*C+k^d^)*(t) (2) where R(t) is the response at time t, Req is the steady state response level, ka is the association rate constant (units: M^−1s^−1), kd is the dissociation rate constant and C is the concentration of the injected peptide analyte. An offset was added to account for the refractive index differences between the analyte and the running buffer.
After analyzing sensograms obtained from injections of increasing concentrations of peptide analytes or CD28-Ig, the experimental data was analyzed using the BIAsimulation software 2.1. A plot of the logarithm of (dR/dt) against time was calculated from the sensograms, and then the slopes at different concentrations were plotted against the concentrations of the peptide analyte. Different angles obtained of the linear lines represent the variation of affinities, which gives the association rate constant (ka) from the equation ln dR/dt=ln(kaCR max)−KaC+kd)t (4) where dR/dt is the rate of change of the SPR signal, C is the concentration of the analyte, Rmax is the maximum analyte binding capacity in RU and R is the SPR signal in RU at time t. The dissociation rate constant is obtained from the equation Kd=kd/ka (5)

SMILES | frequency of IL-2 secreting lymph node cells [1] | proliferative response / inhibition of T cell proliferation (in words) [2] | maximum response units obtained for binding to CD80-Ig (CD80-Ig) | kd (CD80-Ig; C 1.50E+03 nM) | kd (CD80-Ig; C 3.00E+03 nM) | kd (CD80-Ig; C 3.75E+02 nM) | kd (CD80-Ig; C 6.00E+03 nM) | kd (CD80-Ig; C 7.50E+02 nM) | kon (CD80-Ig; C 1.50E+03 nM) | kon (CD80-Ig; C 3.00E+03 nM) | kon (CD80-Ig; C 3.75E+02 nM) | kon (CD80-Ig; C 6.00E+03 nM) | kon (CD80-Ig; C 7.50E+02 nM) | kd (CD80-Ig; C 1.00E+03 nM) | kon (CD80-Ig; C 1.00E+03 nM)
CC[C@H](C)[C@H](NC(=O)[C@@H](NC(=O)CNC(=O)[C@H](CC(N)=O)NC(=O)[C@H](CO)NC(=O)[C@H](CCCNC(=N)N)NC(=O)[C@H](CCC(=O)O)NC(=O)[C@H](CC(N)=O)NC(=O)[C@H](CC(=O)O)NC(=O)[C@H](CC(C)C)NC(=O)[C@H](Cc1ccc(O)cc1)NC(=O)[C@@H]1CCCN1C(=O)[C@@H]1CCCN1C(=O)[C@@H]1CCCN1C(=O)[C@H](Cc1ccc(O)cc1)NC(=O)[C@H](CCSC)NC(=O)[C@H](Cc1ccccc1)NC(=O)[C@H](CCC(=O)O)NC(=O)[C@@H](NC(=O)[C@H](CCCCN)NC(C)=O)[C@@H](C)CC)[C@@H](C)O)C(N)=O [EL CD28] (Ac-KIEFMYPPPYLDNERSNGTI-NH2) | 2776+/−53.5 | significantly less | 667.5 RU | 0.242 s⁻¹ | 0.214 s⁻¹ | 0.399 s⁻¹ | 0.273 s⁻¹ | 0.274 s⁻¹ | 115000 M⁻¹ s⁻¹ | 137000 M⁻¹ s⁻¹ | 246000 M⁻¹ s⁻¹ | 111000 M⁻¹ s⁻¹ | 110000 M⁻¹ s⁻¹ | – | –
CC[C@@H](C)[C@@H](NC(C)=O)C(=O)N[C@@H](C(=O)NCC(=O)N[C@H](CC(N)=O)C(=O)N[C@H](CO)C(=O)N[C@H](CCCNC(=N)N)C(=O)N[C@H](CCC(=O)O)C(=O)N[C@H](CC(N)=O)C(=O)N[C@H](CC(=O)O)C(=O)N[C@H](CC(C)C)C(=O)N[C@H](Cc1ccc(O)cc1)C(=O)N1CCC[C@@H]1C(=O)N1CCC[C@@H]1C(=O)N1CCC[C@@H]1C(=O)N[C@H](Cc1ccc(O)cc1)C(=O)N[C@H](CCSC)C(=O)N[C@H](Cc1ccccc1)C(=O)N[C@H](CCC(=O)O)C(=O)N[C@@H](C(=O)N[C@H](CCCCN)C(N)=O)[C@H](C)CC)[C@H](C)O [RI CD28] (Ac-[dI][dT]G[dN][dS][dR][dE][dN][dD][dL][dY][dP][dP][dP][dY][dM][dF][dE][dI][dK]-NH2) | 1753+/−37.7 | significantly less | 444.2 RU | 0.183 s⁻¹ | 0.146 s⁻¹ | – | 0.228 s⁻¹ | – | 141000 M⁻¹ s⁻¹ | 122000 M⁻¹ s⁻¹ | – | 112000 M⁻¹ s⁻¹ | – | 0.205 s⁻¹ | 171000 M⁻¹ s⁻¹
